Experiments:
CD4+ T cells = assay: CD4+ T cell proliferation inhibition (CFSE staining, flow cytometry); assay type: cell-based; settings: human blood CD4+ T cells; 1.25, 2.5, 5, 10 μM; 5 days; FIG. 2
Description: (§1) PBMCs were transferred to a new tube using a pipette. After RBC lysis buffer was added to PBMC, centrifugation was performed, and then CD8 or CD4 cells were isolated using CD8 MicroBeads (Miltenyl Biotec, 130-045-201) or CD4 MicroBeads (Miltenyl Biotec, 130-096-533). A CFSE (-(and-6)-Carboxyfluorescein Diacetate, Succinimidyl Ester) labeling solution (Invitrogen, C1157) was added to the isolated cells. The compounds of Examples were dissolved in DMSO to make a 5 mM stock, then treated to make 1.25 μM, 2.5 μM, 5 μM, and 10 μM, respectively. After 5 days, the degree of cell proliferation was measured by the amount of CFSE staining using flow cytometry, and the results are shown in FIG. 2.

[1] = tested on: Rat kidney cell line (NRK-49F cell line); assay: Fibrotic factor inhibition in rat kidney cell line (western blot); assay type: cell-based; settings: 5 ng/ml TGFb, 2.5, 5, 10 μM, 48 hours, FIG. 6
C57BL/6 male mice [2] = assay: Mouse renal failure prevention model by Adenine diet; assay type: in vivo; settings: oral once a day 5, 10, 20 mg/kg for 4 weeks, simultaneously with adenine
Description: (§2) A feed containing adenine was administered to C57BL/6 male mice as described in Ali et al. J Pharmacol Toxicol Methods 2013; Jia et al. BMC Nephrol 2013; Tanaka et al. Am J Pathol 2009. Simultaneously with the start of adenine administration, 5 mg/kg, 10 mg/kg, and 20 mg/kg of the compounds of Examples were orally administered daily for 4 weeks (FIG. 8). Physiological saline was administered to the negative control group (vehicle). Blood BUN and Creatinine, which are the primary indicators of kidney function, were measured.
Additionally, the degree of fibrosis of the mouse kidney tissue was measured through immunochemical staining.

C57BL/6 male mice [3] = assay: Mouse renal failure treatment model by Adenine diet; assay type: in vivo; settings: oral once a day 5, 10, 20 mg/kg for 2 weeks, starting 2 weeks after start of adenine
Description: as §2, with “2009. Starting 2 weeks after” for “2009. Simultaneously with”, “10 mg/kg” for “10 mg/kg,”, “for 2” for “for 4”, “(FIG. 4).” for “(FIG. 8).”
Further, the degree of fibrosis of the mouse kidney tissue was measured through immunochemical staining, and the results are shown in FIG. 5.

CD8+ T cells = assay: CD8+ T cell proliferation inhibition (CFSE staining, flow cytometry); assay type: cell-based; settings: human blood CD8+ T cells; 1.25, 2.5, 5, 10 μM; 5 days; FIG. 2
Description: as §1

gdT cells = assay: Inhibition of IL-17 factor in gdT cells (IL-17A ELISA); assay type: cell-based; settings: gdT cells from normal human blood; 10 μM; IL-2 and IL-15 10 ng/ml each; FIG. 3
Description: After collecting 10 ml of normal human blood, ficoll density gradient medium (Cytiva, 17144003) and PBS, the immune cell layer (PBMC) was isolated using a centrifuge. PBMCs were transferred to a new tube using a pipette. After RBC lysis buffer was added to PBMC, centrifugation was performed, and then 10 ng/ml of human IL-2 and IL-15 protein (cytokine) were respectively added to the cells, and cultured (for the purpose of inducing IL-17A). The compounds of Examples were dissolved in DMSO to make a 5 mM stock, and then 10 μM of the example compound was treated. On the 3rd and 5th days of cytokine treatment, 10 ng/ml of human IL-2 and IL-15 proteins (cytokine) were added, centrifuged, and the supernatant was collected. The IL-17A expression level was confirmed with the collected supernatant using an IL-17A ELISA kit (DY371, R&D Systems), and the results are shown in FIG. 3.

C57BL/6 male mice [4] = assay: NTN (Nephrotoxic Serum-Induced Nephritis) model; assay type: in vivo, mouse; settings: oral 5, 10, 20 mg/kg for 7 days from disease induction
Description: After sensitizing C57BL/6 male mice with 200 μg sheep IgG and Freund's […] adjuvant, 10 μg of sheep nephrotoxic serum was injected after five days to induce disease. From the day the disease was induced, the compounds of Examples were orally administered at doses of 5 mg/kg, 10 mg/kg, and 20 mg/kg for 7 days, respectively. Saline was administered to the negative control group (vehicle). On day 8, renal function (uPCR, BUN) was assessed.
The NTN model is a glomerulonephritis model that causes inflammation in the glomeruli, which induces proteinuria.

[5] = tested on: human primary kidney cells; assay: Fibrotic factor inhibition in human primary kidney cells (western blot); assay type: cell-based; settings: 5 ng/ml TGFb, 1.25 µM, 2.5 μM, 5 μM, 48 hours, FIG. 7
Description: Digestion buffer was added to human kidney tissue (preserved after biopsy), cut into small pieces with scissors, and then disintegrated through a shaker incubation for 90 minutes. After filtering the disintegrated tissue through a 70 μm filter cell strainer, the remaining tissue was filtered once again using a 40 μm filter cell strainer. The filtered disintegrated tissue solution was centrifuged, and the cells were isolated and cultured. The cultured cells were treated with 5 ng/ml TGFb and […], 2.5 μM, and 5 μM of the compounds of Examples, respectively, and then 48 hours later, cells were harvested, and western blot was performed to quantitatively analyze fibrotic factor proteins.

## O[C@H]1CCCN[C@@H]1CCCn1cnc2c(Cl)c(Cl)ccc21 [Example]
CD4+ T cells
  CD4+ T cell proliferation: cell proliferation is inhibited
[1]
  fibrotic factor collagen: significantly inhibited
  fibrotic factor fibronectin: significantly inhibited
  fibrotic factor αSMA: significantly inhibited
C57BL/6 male mice [2]; FIG. 8
  deterioration of renal function (blood BUN and Creatinine): significantly inhibited in a dose-dependent manner
  preventive effect on kidney damage caused by Adenine diet: exhibited preventive effect
C57BL/6 male mice [2]; FIG. 9
  collagen accumulation in renal tissue (immunochemical staining): significantly inhibited in a dose-dependent manner
C57BL/6 male mice [3]; FIG. 4
  deterioration of renal function (blood BUN and Creatinine): significantly inhibited in a dose-dependent manner
C57BL/6 male mice [3]; FIG. 5
  accumulation of collagen in renal tissue (immunochemical staining): significantly inhibited in a dose-dependent manner
CD8+ T cells
  CD8+ T cell proliferation: cell proliferation is inhibited
gdT cells
  IL-17 cytokine inhibition: inhibited
C57BL/6 male mice [4]; FIG. 10 and FIG. 11 (immunochemical staining)
  effect on damaged glomerular tissue: effective in damaged glomerular tissue
C57BL/6 male mice [4]; assessed day 8, PRSi 5 mg/kg on the left side of FIG. 10
  proteinuria (uPCR): significantly reducing proteinuria
[5]
  fibrotic factor collagen: significantly inhibited
  fibrotic factor fibronectin: significantly inhibited
  fibrotic factor αSMA: significantly inhibited
